{
  "source": "patent US20250073180A1",
  "about": "“COMPOSITIONS COMPRISING NON-RACEMIC MIXTURES OF R- AND S-1,3-BUTANEDIOL AND USES THEREOF” (priority 2022, published 2025)",
  "key": {"human subjects [1]": {"tested_on": "human subjects", "assay": "Biphasic Alcohol Effects Scale (BAES) questionnaire, acute pilot consumer study", "format": "in vivo", "settings": "60 minutes following consumption of 20 g in a beverage; n=3 per group", "protocol": "(§1) Two scales were utilized: subjective effects with Biphasic Alcohol Effects Scale (BAES), a validated tool to measure the effects of drinking alcohol (Martin, C. S., et al. 1993. Alcoholism, Clinical and Experimental Research 17 (1): 140-46), and GI Tolerance with a Modified Beverage Tolerability Questionnaire (m-BTQ; Chen., 0. T., et al. 2021. Nutrients 13 (6): 2066). Participants were asked to fast for at least 2 hours before consuming the product, and complete the m-BTQ and BAES at 60 minutes following the consumption of the product.\n(§2) The study population was 6 individuals between 25-40 years old. Questionnaires for the m-BTQ and BAES are provided below in Tables 1 and 2.\n(§3) The six participants were between 25-40 years old, were 100% Caucasian and all (100%) identified as male."}, "human subjects [2]": {"tested_on": "human subjects", "assay": "Modified Beverage Tolerability Questionnaire (m-BTQ), acute pilot consumer study", "format": "in vivo", "protocol": "as §1, §2, §3"}, "dogs": {"tested_on": "dogs", "settings": "dietary levels of 0.5, 1.0 and 3.0% for two years; cited from earlier work"}, "human volunteers": {"tested_on": "human volunteers", "settings": "bolus doses of 0.5 g/kg bw or 0.7 g/kg bw; cited from earlier work"}, "[3]": {"settings": "ECHA registration dossiers; cited from earlier work"}, "rats": {"tested_on": "rats", "settings": "dietary levels of 1.0, 3.0 and 10% for two years; cited from earlier work"}, "[4]": {"settings": "25 g/day for 28 consecutive days; cited from earlier work"}},
  "data": [
    {"smiles": "C[C@@H](O)CCO", "note": "[R-1,3-butanediol]", "values": [
      {"measurement": "Mean BAES-SED Composite Score", "setting": "human subjects [1]", "value": 22.3},
      {"measurement": "Mean BAES-STIM Composite Score", "setting": "human subjects [1]", "value": 41.7},
      {"measurement": "Mean Composite Tolerability Score (m-BTQ)", "setting": "human subjects [2]; 60 minutes following consumption of 20 g in a beverage, fasted at least 2 hours, n=3 per group", "value": 8},
      {"measurement": "Tolerability (in words)", "setting": "human subjects [2]; acute use, 20 g beverage, all participants", "value": "well tolerated by all participants"}
    ]},
    {"smiles": "CC(O)CCO", "note": "(stereo not drawn) [1,3-butanediol]", "values": [
      {"measurement": "Adverse effects attributable to ingestion", "setting": "dogs", "value": "no adverse effects attributable to the ingestion"},
      {"measurement": "Side effects of bolus doses", "setting": "human volunteers", "value": "nausea, euphoria and dizziness"},
      {"measurement": "Acute oral, inhalation and dermal toxicity", "setting": "[3]", "value": "low"},
      {"measurement": "Adverse effects attributable to ingestion", "setting": "rats", "value": "no adverse effects attributable to the ingestion"}
    ]},
    {"smiles": "CCCCCC(=O)OCC[C@@H](C)OC(=O)CCCCC", "note": "[BH-BD, bis-hexanoyl (R)-1,3-butanediol]", "values": [
      {"measurement": "Side effects and adverse events", "setting": "[4]", "value": "only mild side effects and no adverse events"}
    ]}
  ]
}
